Test system: human neutrophils
Experiment: EZ-TAXIScan chemotaxis assay, human neutrophils
Assay type: cell-based
Parameters: key to Chemotactic response: moderate (++) response; stronger chemotactic response (+++)
Conditions: for Chemotaxis Index (CI), Control / Speed, Control: no cyclosporine H; for Chemotactic response / Chemotaxis Index (CI) / Speed: Table 2, peptide 20 ng/mL, 1-3 experiments
Method: Heparinized venous blood was centrifuged over a Ficoll-Paque PLUS gradient (d = 1.077 g/ml, GE Healthcare, Boston, MA). The sedimented granulocyte/erythrocyte fraction was collected, and erythrocytes were lysed with cold lysis buffer (155 mM NH4Cl, 10 mM KHCO3, 0.1 mM EDTA). Cells were resuspended in HBSS without Ca^2+/Mg^2+ (Thermo Scientific, Tewksbury, MA), and viability and purity were assessed as described above. Viability of neutrophils was >95%, purity was 98–99%.
Neutrophils were counted and applied in the EZ-TAXIScan chemotaxis assay. […] The EZ-TAXIScan chamber (Effector Cell Institute, Tokyo) was assembled as described by the manufacturer. Cell migration was recorded every 15 seconds for 30 minutes at 37°C in a humidified environmental chamber. Coverslips and chips used in the chamber were coated with 1% BSA at room temperature for 1 hour. All glass coverslips were ultrasonicated and washed before use. Cell migration analysis was conducted with MATLAB software. Cell tracks were subsequently used to compute the chemotaxis index (CI) and speed for each tracked cell at each time step, as well as the average CI and average speed for each experiment.

[1] = Table 1, neutrophils pretreated with cyclosporine H (FPR1 inhibitor), 5 experiments
[2] = Table 3, in the presence of cyclosporine H (FPR1 inhibitor), 2-3 experiments
[3] = human neutrophils pretreated with cyclosporine H

| Compound | Chemotactic response | Chemotaxis Index (CI) | Speed [μm/minute] | other results |
| --- | --- | --- | --- | --- |
| CCCCC/C=C\C[C@@H](O)/C=C/C=C/C=C\[C@@H](O)CCCC(=O)O [LTB4, leukotriene B4, reference compound] |  |  |  | Chemotaxis Index (CI), Cyclosporine H [1]: 0.49 ± 0.01; Speed, Cyclosporine H [1]: 9.23 ± 0.07 μm/minute; Chemotaxis Index (CI), Control (Table 1, 5 experiments): 0.51 ± 0.01; Speed, Control (Table 1, 5 experiments): 9.68 ± 0.30 μm/minute |
| GSVQPQQLPQFEEIRNLALQ [alpha-gliadin synthetic library peptide] | +++ | 0.34 ± 0.01 | 8.10 ± 0.18 | Chemotaxis Index (CI), Cyclosporine H [2]: 0.02 ± 0.01; Speed, Cyclosporine H [2]: 0.30 ± 0.06 μm/minute; Chemotaxis Index (CI), Control (Table 3, 2-3 experiments): 0.33 ± 0.07; Speed, Control (Table 3, 2-3 experiments): 7.90 ± 0.87 μm/minute |
| LQELCCQHLWQIPEQSQCQA [alpha-gliadin synthetic library peptide] | ++ | 0.18 | 8.85 |  |
| MVRVPVPQLQPQNPSQQHPQ [alpha-gliadin synthetic library peptide] | ++ | 0.30 ± 0.01 | 6.68 ± 1.92 | Chemotaxis Index (CI), Cyclosporine H [2]: 0.03 ± 0.01; Speed, Cyclosporine H [2]: 0.45 ± 0.11 μm/minute; Chemotaxis Index (CI), Control (Table 3, 2-3 experiments): 0.28 ± 0.03; Speed, Control (Table 3, 2-3 experiments): 7.50 ± 1.95 μm/minute |
| PFPQPQLPYLQPQPFRPQQP [alpha-gliadin synthetic library peptide] | ++ | 0.21 ± 0.01 | 9.94 ± 0.09 |  |
| PPYCTIVPFGIFGTNYR [alpha-gliadin synthetic library peptide] | ++ | 0.29 ± 0.01 | 8.55 ± 0.11 |  |
| PQNPSQQHPQEQVPLVQQQQ [alpha-gliadin synthetic library peptide] | ++ | 0.23 | 6.73 |  |
| PQQPISQQQQQQQQQQQQQQ [alpha-gliadin synthetic library peptide] | ++ | 0.29 | 7.62 |  |
| QIPEQSQCQAIHNVVHAIIL [alpha-gliadin synthetic library peptide] | +++ | 0.33 | 8.64 |  |
| QQHNIAHGRSQVLQQSTYQL [alpha-gliadin synthetic library peptide] | +++ | 0.28 ± 0.01 | 10.17 ± 1.45 | Chemotaxis Index (CI), Cyclosporine H [2]: 0.05 ± 0.02; Speed, Cyclosporine H [2]: 0.48 ± 0.19 μm/minute; Chemotaxis Index (CI), Control (Table 3, 2-3 experiments): 0.27 ± 0.02; Speed, Control (Table 3, 2-3 experiments): 6.65 ± 0.33 μm/minute |
| QQYPLGQGSFRPSQQNPLAQ [alpha-gliadin synthetic library peptide] | ++ | 0.21 | 8.08 |  |
| QVLQQSTYQLLQELCCQHLW [alpha-gliadin synthetic library peptide] | ++ | 0.33 | 7.49 |  |
| SSQVSFQQPLQQYPLGQGSF [alpha-gliadin synthetic library peptide] | ++ | 0.19 | 7.65 |  |
| cyclosporine H [reference compound] |  |  |  | effect on PT-gliadin-induced chemotaxis [3]: completely abrogated; effect on fMLP-mediated neutrophil chemotaxis [3]: abolished; effect on leukotriene B4 (LTB4)-mediated chemotaxis [3]: remained unaffected |
